Results from patent publication US20230310427A1, “NEW THERAPEUTIC USE OF RILPIVIRINE” (UNIVERSITY OF SOUTH AUSTRALIA, priority 2020, published 2023).

Assays:
Format in all cases: cell-based
[1] = tested on: p53 in A2780 cells; assay: Western blot, cell cycle regulatory proteins; details: 24 hour, increasing concentration
Protocol: (§1) For Western blotting, cells (8×10^5) were seeded in a culture dish with 10 mL medium and incubated overnight at 37° C., 5% CO2. Untreated and compound-treated cells were lysed using phosphate lysis buffer and protease inhibitors. The protein concentration of each sample was determined by Bio-Rad DC™ protein assay (Bio-Rad Laboratories, Hercules, CA, United States of America). The protein was deactivated at 95° C. for 5 min and then resolved on 4-20% polyacrylamide gels by electrophoresis. Proteins were transferred to polyvinylidene difluoride (PDVF) membrane and blocked for 1 h with 10% skimmed milk (SM) in Tris-buffered saline and Tween (TBST). After adding primary antibody, the membranes were incubated overnight on a rocker in a 4° C. cold room. The following day, membranes were washed in TBST (4×20 min), incubated for at least 1 h at room temperature with the appropriate horseradish peroxidase conjugated secondary antibody. Following this, the blots were washed with TBST (4×20 min) again. The blots were then treated with Western blotting detection reagent and the band intensity was determined using a Bio-Rad ChemiDoc™ MP imaging system (Bio-Rad Laboratories). All the antibodies used for protein detection were from Cell Signaling Technology (Danvers, MA, United States of America). The primary and secondary antibodies used were obtained from Cell Signalling Technology (Danvers, MA, United States of America).

[2] = tested on: phosphorylated retinoblastoma (Rb) protein in A2780 cells; assay: Western blot, cell cycle regulatory proteins; details: 24 hour, increasing amounts
Protocol: as §1

[3] = tested on: cyclin D1 in A2780 cells; assay: Western blot, cell cycle regulatory proteins; details: 24 hour, increasing amounts
Protocol: as §1

[4] = tested on: p21 in A2780 cells; assay: Western blot, cell cycle regulatory proteins; details: 24 hour, increasing concentration
Protocol: as §1

[5] = tested on: A2780 cells; assay: Colony formation assay; details: data not shown
Protocol: A total of 1000-1500 cells/well were plated on a 6 well plate and allowed to adhere for 6-8 hours. Appropriate concentrations of Rilpivirine were added and then the cells were put back into the incubator for 7-14 days. The medium was changed every 3 days. After the incubation, the cells were washed with 1 ml PBS carefully. Cells were then fixed with 1 % Formaldehyde and stained with crystal violet. Colonies were counted with >50 cells by eye and images were taken using a camera fitted with microscope.

[6] = tested on: auto-phosphorylation of Aurora A at Thr288 in NB4 cells; assay: Western blot, Aurora A auto-phosphorylation; details: 24 hour, 5 µM, 10 µM and 20 µM
Protocol: as §1, with “The primary and secondary antibodies used were obtained from Cell Signalling Technology (Danvers, MA, United States of America).” left out

[7] = tested on: auto-phosphorylation of Aurora A at Thr288 in HL-60 cells; assay: Western blot, Aurora A auto-phosphorylation; details: 24 hour, 5 µM, 10 µM and 20 µM
Protocol: as §1, with “The primary and secondary antibodies used were obtained from Cell Signalling Technology (Danvers, MA, United States of America).” left out

[8] = tested on: Jurkat cells; assay: Apoptosis analysis (Annexin-V FITC/PI); details: 48 hour treatment, various concentrations
Protocol: (§2) Instead of ethanol fixation, the cell number of each sample was counted, and the cells were diluted to 1×10^5 cells with 1 mL PBS in fresh FACS tubes. Cells were centrifuged and then re-suspended in 1 mL of cold PBS (whole step repeated twice). Pelleted cells were resuspended in 100 µL binding buffer, and subsequently 3 µL of Annexin V and 3 µL of PI were added to all tubes and incubated in the dark for 15 min at room temperature. Following the incubation period, 200 µL of 1 x binding buffer was added. Samples were assessed using a flow cytometer (Cytoflex) within 1 h of staining and data were analysed using Cytexpert software.

[9] = tested on: NB4 cells; assay: Apoptosis analysis (Annexin-V FITC/PI); details: 48 hour treatment, various concentrations
Protocol: as §2

[10] = tested on: HL-60 cells; assay: Apoptosis analysis (Annexin-V FITC/PI); details: 48 hour treatment, various concentrations
Protocol: as §2

[11] = tested on: p53 WT A2780 cells; assay: Apoptosis analysis (Annexin-V FITC/PI); details: 48 hour treatments, various concentrations
Protocol: as §2

[12] = tested on: p53 mRNA in A2780 cells; assay: RT-qPCR; details: 24 hours
Protocol: (§3) The expression of different genes at the mRNA level was assayed by RT-qPCR. Briefly, cells (1×10^6) were seeded in 10 cm tissue culture plates and treated with compounds after having been cultured overnight at 37° C., 5% CO2. RNA was extracted using the High Pure RNA Isolation Kit (Roche Applied Science, Castle Hill, NSW, Australia) according to the manufacturer’s instructions. The concentration of RNA in each sample was determined using a NanoDrop® ND1000 spectrophotometer (ThermoFisher Scientific, Waltham, MA, United States of America). 1 µg of RNA was used in a 20 µL reverse transcription reaction using a Transcriptor First Strand cDNA Synthesis Kit (Roche Applied Science). RT-qPCR was completed using duplicate samples with cDNA using SYBR Green I dye (Roche Applied Science) and performed using Light Cycler LC96 (Roche Applied Science, Penzberg, Germany). GAPDH mRNA was used as a reference sequence and data was analysed using Bio-Rad CFX manager version 3.1.

[13] = tested on: cyclin D1 mRNA in A2780 cells; assay: RT-qPCR; details: 24 hours
Protocol: as §3

[14] = tested on: bc1-2; assay: Western blot of cell lysates, apoptosis markers; details: increasing concentrations; data not shown
Protocol: as §1, with “The primary and secondary antibodies used were obtained from Cell Signalling Technology (Danvers, MA, United States of America).” left out

[15] = tested on: cleaved PARP (poly (ADP-ribose) polymerase); assay: Western blot of cell lysates, apoptosis markers; details: increasing concentrations; data not shown
Protocol: as §1, with “The primary and secondary antibodies used were obtained from Cell Signalling Technology (Danvers, MA, United States of America).” left out

[16] = tested on: Leukemia (HL-60, U-937, NB4, Jurkat, K-562), ovarian (A2780), prostate (PC3) and breast (T47D) cancer cell lines; assay: Cell viability assays (MTT and resazurin); details: 72 hour treatment; range over all cell lines tested; read-out: IC50, inhibition of cancer cell proliferation
Description: The MTT (3-(4,5-dimethylthiazol-2-yl)-2,5-diphenyl tetrazolium bromide; Sigma-Aldrich, St Louis, MO, United States of America) assay was used to determine half maximal inhibition values (IC50) in response to drug treatment using a number of different adherent cancer cell lines. The MTT was converted by metabolically active cells into an insoluble formazan product which was solubilised with 100% DMSO. The solubilised formazan gives absorbance at 560 nm which is directly proportional to the number of viable cells. The assay was carried out as previously described (Wang S et al., J Med Chem 47(7):1662-1675, 2004). The absorbance of treated wells was read using an EnVision multi-label plate reader. The resazurin assay was carried out for non-adherent cell lines as reported previously (Yu M et al., EJMC 95:116-126, 2015). IC50 values were determined by non-linear regression analysis using GraphPad Prism software.

- IC50 [16]: 3 to 8 µM
Structure (SMILES): Cc1cc(/C=C/C#N)cc(C)c1Nc1ccnc(Nc2ccc(C#N)cc2)n1 [Rilpivirine, 4-[[4-[4-[(E)-2-cyanoethenyl]-2,6-dimethylanilino]pyrimidin-2-yl]amino]benzonitrile]
- expression of p53 protein [1]: increase in the expression of p53
- amount of phosphorylated Rb protein [2]: decrease
- amount of cyclin D1 [3]: decrease
- p21 protein [4]: induced its target gene p21
- clonogenic survival [5]: clear inhibition of clonogenic survival
- level of auto-phosphorylated Aurora A (Thr288) [6]: marked decrease in the level of auto-phosphorylated protein
- level of auto-phosphorylated Aurora A (Thr288) [7]: marked decrease in the level of auto-phosphorylated protein
- induction of apoptosis [8]: induces apoptosis in all of these cell lines in a dose-dependent manner
- induction of apoptosis [9]: induces apoptosis in all of these cell lines in a dose-dependent manner
- induction of apoptosis [10]: induces apoptosis in all of these cell lines in a dose-dependent manner
- induction of apoptosis [11]: induces apoptosis in this cell line in a dose-dependent manner
- p53 mRNA expression ([12]; 20 µM): dramatic increase in p53 expression
- p53 mRNA expression ([12]; increasing concentration): upregulated p53 expression
- cyclin D1 mRNA [13]: decrease in cyclin D1mRNA was observed in a dose-dependent manner
- bc1-2 level in cell lysates [14]: downregulation of bc1-2
- cleaved PARP in cell lysates [15]: appearance in the cell lysates of cleaved PARP
